Measured values: PubChem BioAssay (NCI)
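Each compound was tested at five concentrations against cells in 96-well plates for 48 hours. TGI denotes the concentration required for complete inhibition of growth.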

How the values were obtained:
Assay in all cases: NCI-60 cell line screen, 48 h
[1] = test system: 786-0 renal
[2] = test system: A498 renal
[3] = test system: A549 NSCLC
[4] = test system: ACHN renal
[5] = test system: BT-549 breast
[6] = test system: CCRF-CEM leukemia
[7] = test system: COLO 205 colon
[8] = test system: DU-145 prostate
[9] = test system: EKVX NSCLC
[10] = test system: HCT-116 colon
[11] = test system: HCT-15 colon
[12] = test system: HL-60(TB) leukemia
[13] = test system: HOP-62 NSCLC
[14] = test system: HS 578T breast
[15] = test system: HT29 colon
[16] = test system: IGROV1 ovarian
[17] = test system: K-562 leukemia
[18] = test system: KM12 colon
[19] = test system: LOX IMVI melanoma
[20] = test system: M14 melanoma
[21] = test system: MALME-3M melanoma
[22] = test system: MCF7 breast
[23] = test system: MDA-MB-231 breast
[24] = test system: MDA-MB-435
[25] = test system: MDA-N
[26] = test system: MOLT-4 leukemia
[27] = test system: NCI-H226 lung
[28] = test system: NCI-H23 lung
[29] = test system: NCI-H460 lung
[30] = test system: NCI-H522 lung
[31] = test system: NCI/ADR-RES ovarian
[32] = test system: OVCAR-3 ovarian
[33] = test system: OVCAR-4 ovarian
[34] = test system: OVCAR-5 ovarian
[35] = test system: PC-3 prostate
[36] = test system: RPMI-8226 leukemia
[37] = test system: RXF 393 renal
[38] = test system: SF-268 CNS
[39] = test system: SF-295 CNS
[40] = test system: SK-MEL-2 melanoma
[41] = test system: SK-MEL-28 melanoma
[42] = test system: SK-MEL-5 melanoma
[43] = test system: SK-OV-3 ovarian
[44] = test system: SN12C renal
[45] = test system: SNB-19 CNS
[46] = test system: SNB-75 CNS
[47] = test system: SR leukemia
[48] = test system: SW-620 colon
[49] = test system: T-47D breast
[50] = test system: TK-10 renal
[51] = test system: U251 CNS
[52] = test system: UACC-257 melanoma
[53] = test system: UACC-62 melanoma
[54] = test system: UO-31 renal
[55] = test system: CAKI-1 renal
[56] = test system: HOP-92 NSCLC
[57] = test system: OVCAR-8 ovarian
[58] = test system: SF-539 CNS

Measured: TGI

NC(=O)CNC(=O)[C@@H]1C[C@@H](OCCC(=O)O)CN1C(=O)OCc1ccccc1
not listed: [55] | [56] | [57] | [58]
> 100 µM: all other assays above

O=c1[nH]c(=O)n2n1C1C=CC2CC1
not listed: [21] | [30] | [33] | [37]
> 100 µM: all other assays above
